# Source: ChEMBL document CHEMBL1201862, “PubChem BioAssay data set” (2004)
#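 Growth conditions: 96-well plates. Treatment: test compound, 48 hours, 5 concentrations. Analysis: linear interpolation between bracketing concentrations; unreached endpoints set to highest concentration. GI50 marks 50% less growth.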 The source made the active and inactive calls. Cut-off read from the data, not from the text of the source: active = GI50 up to about 1.1 µM and inactive = higher.
# Legend:
# Experiment in all cases: growth of human tumour cells (NCI), 48 h
# [1] = test system: A498
# [2] = test system: ACHN
# [3] = test system: COLO 205
# [4] = test system: HCT-116
# [5] = test system: HOP-92
# [6] = test system: K562
# [7] = test system: MOLT-4
# [8] = test system: Malme-3M
# [9] = test system: OVCAR-5
# [10] = test system: OVCAR-8
# [11] = test system: RXF 393
# [12] = test system: SK-MEL-2
# [13] = test system: SK-MEL-5
# [14] = test system: SK-OV-3
# [15] = test system: SN12C
# [16] = test system: SNB-19
# [17] = test system: SNB-75
# [18] = test system: SW-620
# [19] = test system: U-251
# [20] = test system: UACC-62
SMILES,GI50 [1],GI50 [2],GI50 [3],GI50 [4],GI50 [5],GI50 [6],GI50 [7],GI50 [8],GI50 [9],GI50 [10],GI50 [11],GI50 [12],GI50 [13],GI50 [14],GI50 [15],GI50 [16],GI50 [17],GI50 [18],GI50 [19],GI50 [20]
Cn1c(=O)c2c([nH]/c(=N/N=C/c3ccccc3C(=O)O)n2C)n(C)c1=O,> 100 µM (inactive),> 100 µM (inactive),> 100 µM (inactive),> 100 µM (inactive),> 100 µM (inactive),> 100 µM (inactive),> 100 µM (inactive),> 100 µM (inactive),> 100 µM (inactive),> 100 µM (inactive),> 100 µM (inactive),> 100 µM (inactive),> 100 µM (inactive),> 100 µM (inactive),> 100 µM (inactive),> 100 µM (inactive),> 100 µM (inactive),> 100 µM (inactive),> 100 µM (inactive),> 100 µM (inactive)
CN(CCCNC(=O)c1nn(-c2ccc(Cl)cc2Cl)c2c1ccc1ccccc12)CCCNC(=O)c1nn(-c2ccc(Cl)cc2Cl)c2c1ccc1ccccc12,1.43 µM (inactive),1.66 µM (inactive),1.91 µM (inactive),1.67 µM (inactive),1.84 µM (inactive),1.1 µM (active),1.61 µM (inactive),1.95 µM (inactive),1.89 µM (inactive),1.82 µM (inactive),1.66 µM (inactive),1.65 µM (inactive),1.88 µM (inactive),2 µM (inactive),1.65 µM (inactive),1.54 µM (inactive),1.75 µM (inactive),2.26 µM (inactive),1.69 µM (inactive),1.65 µM (inactive)
NC(CCCCN/C=C1/N=C(c2ccccc2)OC1=O)C(=O)O (stereo not given),> 100 µM (inactive),> 100 µM (inactive),> 100 µM (inactive),> 100 µM (inactive),> 100 µM (inactive),53.6 µM (inactive),> 100 µM (inactive),> 100 µM (inactive),> 100 µM (inactive),> 100 µM (inactive),> 100 µM (inactive),> 100 µM (inactive),> 100 µM (inactive),> 100 µM (inactive),> 100 µM (inactive),> 100 µM (inactive),> 100 µM (inactive),> 100 µM (inactive),> 100 µM (inactive),> 100 µM (inactive)
Cc1nc2c(o1)C(=O)c1ccccc1/C2=N/c1ccccn1,16.7 µM (inactive),17.3 µM (inactive),35.6 µM (inactive),20.4 µM (inactive),18.2 µM (inactive),29.8 µM (inactive),17.7 µM (inactive),12.5 µM (inactive),17.9 µM (inactive),15.4 µM (inactive),> 100 µM (inactive),18.8 µM (inactive),16.7 µM (inactive),> 100 µM (inactive),24.9 µM (inactive),14.8 µM (inactive),4.57 µM (inactive),17.8 µM (inactive),16.8 µM (inactive),20 µM (inactive)
COc1cc(C2c3cc4c(cc3[C@@H](Nc3ccc([N+](=O)[O-])cc3)C3COC(=O)[C@H]23)OCO4)cc(OC)c1O (stereo not given in full),0.676 µM (active),0.25 µM (active),3.79 µM (inactive),2.27 µM (inactive),1.78 µM (inactive),2.44 µM (inactive),0.0171 µM (active),2.01 µM (inactive),2.69 µM (inactive),1.83 µM (inactive),2.02 µM (inactive),4.26 µM (inactive),0.586 µM (active),1.54 µM (inactive),0.853 µM (active),0.778 µM (active),1.19 µM (inactive),1.5 µM (inactive),0.631 µM (active),0.971 µM (active)
